Assay results taken from patent publication US3949075A, “Anti-microbial compounds of 2', 4' substituted anilides of substituted nitrosalicylic acid for quadruped animals” (Ferro Corporation, priority 1974, dated 1976).
Like-named read-outs stand apart in the source and are kept apart here.

Legend:
Haemonchus contortus = test: Percent of Haemonchus destroyed or expelled in infected sheep (egg count after treatment); format: in vivo, Haemonchus contortus (in sheep)
Procedure: Two groups of sheep were used in the tests. One group was used as a non-medicated control, while the other group was treated with the compound under investigation. Helminth-free young lambs were infected with about 10,000 filariform larvae of Haemonchus contortus. In three weeks when the infection became apparent, egg counts were made to determine the density of the worm burden.
The egg count was carried out using the following modified Stoll method. Three grams of sheep feces were taken rectally from each animal and placed in a Stoll flask. To each flask, tap water was added to the top line. The fecal pellets were too hard to break down, the flasks were closed with rubber stoppers and kept in the refrigerator for several hours. The flasks were thoroughly shaken and a 1 ml. sample was drawn from the middle using a wide mouth pipette. This 1 ml. sample was transferred to an 8 ml. plastic tube, to which enough saturated sodium chloride solution was added to reach the rim. The tubes were then centrifuged for 10 minutes at 1500 r.p.m. Then sodium chloride solution was added with a medicine dropper forming a concave miniscus. A cover glass was carefully added and the tubes were kept in a refrigerator for ten to twenty minutes. During that period, the nematode ova flowed upward and adhered to the bottom of the cover glass slip. At the end of the 20-minute period, the cover slip was carefully detached from the miniscus and transferred to a microscopic slide. The ova were then counted under a microscope equipped with 10X ocular and 10X objective lens. Each ovum under the microscope represented 20 ova in the sample.
Animals with sufficiently high egg counts were taken out of the pool and housed in experimental pens. Since the salicylanilides of the present invention are water insoluble, the compounds were first ground using a mortar and pestle and then were placed in a carboxymethyl cellulose solution. The particles were further micronized ultrasonically. The compound was then administered to two or three animals by Oesophageal gavage. Control, untreated animals, received only the carboxymethyl cellulose solution in a similar manner. On the sixth and seventh day after treatment, fecal pellets were taken from the rectum of the control as well as the treated animals and egg counts were made.
(§1) The results of tests on sheep in a manner described, supra, using compounds of the present invention are given in Table 1, Examples 5 through 13. The numbers in the column headed "Haemonchus (15 mg/kg)" refer to the percent of parasites destroyed or expelled when the indicated compound was introduced into the rumen of sheep at a dosage of 15 milligrams per kilogram of body weight. The values under "Tolerance (mg/kg)" refer to the highest test dosage in the milligrams of anthelmintic per kilogram of body weight at which the sheep developed no toxic symptoms. "Tol." is an abbreviation for "tolerated". The symbols R1 and R2 refer to those of Formula I in these and other following examples.
(§2) The data of the tables were generated using procedures previously described. The compounds tested are disubstituted and, except for Example 50 which is dibromo, are dichloro. Where the position for the substituents is other than 2' and 4', it is indicated. Under the indicated microorganisms, the values given in this and the following tables, should be read as: percentage of microorganism killed/dose in milligrams per kilogram of body weight. Under "Tolerance", the term "Tol." means "tolerated", "Tox." means "toxic", and "Sym." means "symptoms of toxic reaction", all at the dosage value which follows. It will be appreciated that there is no sharp toxicity end point in determining toxicity to living sheep.

sheep = test: Tolerance / toxicity in sheep; format: in vivo; parameters: key to Tolerance at 100 mg/kg / Tolerance at 50 mg/kg: "toxic" refers to death of sheep resulting from the use of the indicated compound at the indicated dosage; key to Tolerance: Tol.: tolerated; Tox.: toxic; Sym.: symptoms of toxic reaction
Procedure: as §1
The importance of the 2',4' substitution on the anilide moiety of Formula I is illustrated by the case of the dichloro substitution as summarized in Table III. […] This has been mentioned briefly hereinabove. As used herein, "toxic" refers to death of sheep resulting from the use of the indicated compound at the indicated dosage.
as §2

Fasciola hepatica = test: Test for activity against liver flukes, Fasciola hepatica, in infected sheep; format: in vivo; conditions: Fasciola hepatica, sheep, Tables VIII-XI, read-out: Fasciola hepatica, percentage of microorganism killed
Procedure: Test for activity against liver flukes were conducted as follows:
Eggs of Fasciola hepatica were collected from the bile of donor sheep. The eggs were embryonated and snails were infected (the genus Lymnaea serves as intermediate host) to produce Metacercariae which are the infective forms for sheep. Each sheep was infected with 250 metacercariae intraruminally. When the infection became patent in ca. 80 days, egg counts were carried out to determine the degree of worm burden. The liver was processed to recover F. hepatica in the untreated and treated sheep.
as §2

[1] = Haemonchus contortus, sheep, 15 mg/kg, Tables VIII-XI, read-out: Haemonchus, percentage of microorganism killed
[2] = Haemonchus contortus, sheep, intrarumenal, 15 mg/kg, Table II, read-out: Effectiveness in removal of Haemonchus
[3] = Haemonchus contortus, sheep, 15 mg/kg, Table V, read-out: Effectiveness at 15 mg/kg against Haemonchus
[4] = Haemonchus contortus, iv, sheep, 15 mg/kg, Tables III and IV, read-out: Effectiveness (%) at 15 mg/kg

Row | Compound | inhibition in vivo at 15 mg/kg (Haemonchus contortus; [1]) [%] | inhibition in vivo at 15 mg/kg (Haemonchus contortus; [2]) [%] | inhibition in vivo at 15 mg/kg (Haemonchus contortus; [3]) [%] | other results
1 | Cc1c([N+](=O)[O-])cc(C(C)(C)C)c(O)c1C(=O)Nc1ccccc1I [Example 18] | 0 | 0 | – | inhibition in vivo at 15 mg/kg (Haemonchus contortus; Haemonchus contortus, read-out: Effectiveness at 15 mg/kg against Haemonchus, sheep, 15 mg/kg, Table V): 0%
2 | Cc1c([N+](=O)[O-])cc(C(C)(C)C)c(O)c1C(=O)Nc1cccc(C(F)(F)F)c1 [34 CF3 3'-substitution] | 2 | – | 2 | –
3 | Cc1c([N+](=O)[O-])cc(C(C)(C)C)c(O)c1C(=O)Nc1cc(Cl)c(Cl)cc1Cl [Example 36] | – | – | – | Toxicity (printed in the column Effectiveness at 15 mg/kg against Haemonchus) (sheep; 15 mg/kg, Table VI): Toxic
4 | Cc1c([N+](=O)[O-])cc(C(C)(C)C)c(O)c1C(=O)Nc1cccc(Cl)c1 [31 Cl 3'-substitution] | 0 | – | 0 | –
5 | Cc1c([N+](=O)[O-])cc(C(C)(C)C)c(O)c1C(=O)Nc1ccc(S(N)(=O)=O)cc1 [Example 19] | – | 0 | – | –
6 | Cc1ccc(NC(=O)c2c(C)c([N+](=O)[O-])cc(C(C)(C)C)c2O)c(C)c1 [Example 21] | – | 13 | – | –
7 | Cc1c([N+](=O)[O-])cc(C(C)(C)C)c(O)c1C(=O)Nc1ccccc1Br [Example 17] | 0 | 0 | 0 | –
8 | Cc1cccc(Cl)c1NC(=O)c1c(C)c([N+](=O)[O-])cc(C(C)(C)C)c1O [Example 30] | 0 | – | – | inhibition in vivo at 15 mg/kg (Haemonchus contortus; [4]): 0%; effectiveness against the parasites, in words (Haemonchus contortus; sheep): ineffective
9 | Cc1c([N+](=O)[O-])cc(C(C)(C)C)c(O)c1C(=O)Nc1ccc(Cl)c(Cl)c1 [Example 25] | 100 | – | – | inhibition in vivo at 2 mg/kg (Fasciola hepatica; 2 mg/kg): 0%; inhibition in vivo at 5 mg/kg (Fasciola hepatica; 5 mg/kg): 95%; inhibition in vivo at 15 mg/kg (Fasciola hepatica; 15 mg/kg): 100%; Tolerance (sheep; 15 mg./kg., Tables VIII, X): Tox.; Tolerance (sheep; 50 mg./kg., Tables VIII-X): Tox.; Tolerance at 50 mg/kg (sheep; 50 mg/kg, Tables III and IV): toxic; inhibition in vivo at 15 mg/kg (Haemonchus contortus; [4]): 100%; inhibition in vivo at 5 mg/kg (Haemonchus contortus; Haemonchus contortus, sheep, 5 mg/kg, Tables VIII-XI, read-out: Haemonchus, percentage of microorganism killed): 20%; Effectiveness (%) at 5 mg/kg (Haemonchus contortus; sheep, 5 mg/kg, Tables III and IV): 20%
10 | Cc1c([N+](=O)[O-])cc(C(C)(C)C)c(O)c1C(=O)Nc1cccc(Cl)c1Cl [Example 60] | 14 | – | – | –
11 | Cc1ccc(Cl)cc1NC(=O)c1c(C)c([N+](=O)[O-])cc(C(C)(C)C)c1O [Example 29] | 0 | – | – | inhibition in vivo at 15 mg/kg (Haemonchus contortus; [4]): 0%; effectiveness against the parasites, in words (Haemonchus contortus; sheep): ineffective
12 | Cc1c([N+](=O)[O-])cc(C(C)(C)C)c(O)c1C(=O)Nc1ccccc1F [Example 15] | – | 0 | – | –
13 | Cc1c([N+](=O)[O-])cc(C(C)(C)C)c(O)c1C(=O)Nc1ccccc1Cl [Example 16] | 33 | 33 | 33 | –
